One compound from patent publication US20200214330A1, “RICE PROTEIN HYDROLYSATES WITH ANTI-INFLAMMATORY PROPERTIES” (ABBOTT LABORATORIES, priority 2017, published 2020) can be followed below.

What all share (format): cell-based, murine
Test [1] deals with NF-κB activation in RAW 264.7 cells. In words: LPS-induced NF-κB activation in RAW 264.7 macrophage cells. Particulars: 2.5 μg/mL pretreatment for 2 hours; 30 min after LPS stimulation; FIG. 13. As for the experimental part: FIG. 6 illustrates in vitro NF-κB activation (30 min after LPS stimulation) in macrophage cells (RAW264.7) preincubated for 2 hours with RPH-1 and then treated with LPS; FIG. 13 illustrates in vitro inhibition of nuclear factor kappa-light-chain-enhancer of activated B cells (NF-κB) activation in macrophage cells (RAW264.7) pre-incubated with curcumin for 2 hours and treated with LPS for 30 minutes; Specific studies have determined effects of the hydrolysates on TNFα secretion, 4-1BBL expression, and NF-κB Expression in murine macrophages (RAW 264.7 cells) treated with LPS (see FIGS. 1-13). Pretreatment with curcumin at 0.5 μg/mL and […] for 1 hour led to an inhibition of TNFα secretion (FIG. 11) and 4-IBBL expression (FIG. 12) at 6 hours and 24 hours following LPS treatment.

Test [2] deals with TNFα secretion from RAW 264.7 cells. In words: LPS-induced TNFα secretion from RAW 264.7 macrophage cells. The note with it: 1 hour pretreatment at 0.5 μg/mL, FIG. 11. As for the experimental part: (§1) FIG. 11 illustrates in vitro early (6 hours after LPS stimulation) and late (24 hours after LPS stimulation) phase inhibition of TNFα secretion from macrophage cells (RAW264.7) pre-incubated with different levels of curcumin for 1 hour and then treated with LPS; Specific studies have determined effects of the hydrolysates on TNFα secretion, 4-1BBL expression, and NF-κB Expression in murine macrophages (RAW 264.7 cells) treated with LPS (see FIGS. 1-13). RPH-1 inhibits early and late phase TNFα secretion from cells in culture.

The subject of test [3] is 4-1BBL expression in RAW 264.7 cells. The test is described as follows: LPS-induced 4-1BBL expression in RAW 264.7 macrophage cells. Particulars: 1 hour pretreatment at 0.5 μg/mL, FIG. 12. On the procedure:
as §1, with “FIG. 5 illustrates in vitro early (6 hours after LPS stimulation) and late phase (24 hours after LPS stimulation) inhibition of 4-1BBL expression in macrophage cells (RAW264.7) pre-incubated for 1 hour with RPH-land then treated with LPS; […] FIG. 12” for “FIG. 11”, “of 4-1BBL expression in” for “of TNFα secretion from”, “pre-incubated for 1 hour” for “pre-incubated”, “curcumin” for “curcumin for 1 hour”

Consider `COc1cc(C=CC(=O)CC(=O)C=Cc2ccc(O)c(OC)c2)ccc1O` [curcumin, 1,7-Bis-(4-hydroxy-3-methoxyphenyl)-hepta-1,6-diene-3,5-dione], for which, in test [1], the “LPS-induced NF-κB expression” value is on record as “decreased”. In test [2] (6 hours after LPS), the “TNFα secretion, early phase” value is on record as “inhibition”. In addition, the “TNFα secretion, late phase” value in test [2] (24 hours after LPS) is recorded as “inhibition”. The “4-1BBL expression, early phase” value in test [3] (6 hours after LPS) is “inhibition”. The “4-1BBL expression, late phase” value in test [3] (24 hours after LPS) is “inhibition”.
